According to ChEMBL document CHEMBL1201862, “PubChem BioAssay data set” (2004):
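In this assay, cells in 96-well plates receive the compound at five concentrations for 48 hours. Endpoints are linearly interpolated between the surrounding concentrations. The concentration for 50% growth inhibition is given as GI50.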 Active and inactive are the calls of the source. Rule as the data show it: active = GI50 up to about 1.1 µM and inactive = higher.

How the values were obtained:
Test in all cases: DTP human tumour cell line panel, 48 h
[1] = test system: HT-29
[2] = test system: SF-268
[3] = test system: NCI-H460
[4] = test system: MDA-MB-435
[5] = test system: MOLT-4
[6] = test system: UO-31
[7] = test system: SR
[8] = test system: HL-60
[9] = test system: LOX IMVI
[10] = test system: OVCAR-8
[11] = test system: OVCAR-5
[12] = test system: COLO 205
[13] = test system: A498
[14] = test system: SK-MEL-28
[15] = test system: UACC-257
[16] = test system: NCI/ADR-RES
[17] = test system: Malme-3M
[18] = test system: MCF7
[19] = test system: SW-620
[20] = test system: OVCAR-4
[21] = test system: SK-MEL-5
[22] = test system: NCI-H226
[23] = test system: HOP-92
[24] = test system: DU-145
[25] = test system: T47D
[26] = test system: CCRF-CEM
[27] = test system: HOP-62
[28] = test system: IGROV-1
[29] = test system: RXF 393
[30] = test system: 786-0
[31] = test system: SN12C
[32] = test system: SK-MEL-2
[33] = test system: BT-549
[34] = test system: UACC-62
[35] = test system: HCT-15
[36] = test system: M14
[37] = test system: HCC 2998
[38] = test system: RPMI-8226
[39] = test system: MDA-N
[40] = test system: EKVX
[41] = test system: NCI-H23
[42] = test system: HCT-116
[43] = test system: Hs-578T
[44] = test system: MDA-MB-231
[45] = test system: KM12
[46] = test system: A549
[47] = test system: U-251
[48] = test system: SK-OV-3
[49] = test system: CAKI-1
[50] = test system: OVCAR-3
[51] = test system: SF-539
[52] = test system: SF-295
[53] = test system: SNB-19
[54] = test system: NCI-H522

Compound: CCOC(=O)C1(C(=O)OCC)C=C(c2ccccc2)N(C2OC(COC(C)=O)C(OC(C)=O)C(OC(C)=O)C2OC(C)=O)C1=S (centres undefined)
- GI50 [1]: > 100 µM (inactive)
- GI50 [2]: > 100 µM (inactive)
- GI50 [3]: > 100 µM (inactive)
- GI50 [4]: 54 µM (inactive)
- GI50 [5]: 42.4 µM (inactive)
- GI50 [6]: 61.5 µM (inactive)
- GI50 [7]: > 100 µM (inactive)
- GI50 [8]: 22.9 µM (inactive)
- GI50 [9]: > 100 µM (inactive)
- GI50 [10]: > 100 µM (inactive)
- GI50 [11]: > 100 µM (inactive)
- GI50 [12]: > 100 µM (inactive)
- GI50 [13]: 85.1 µM (inactive)
- GI50 [14]: > 100 µM (inactive)
- GI50 [15]: 90.4 µM (inactive)
- GI50 [16]: 64.1 µM (inactive)
- GI50 [17]: > 100 µM (inactive)
- GI50 [18]: 44.7 µM (inactive)
- GI50 [19]: > 100 µM (inactive)
- GI50 [20]: 51.6 µM (inactive)
- GI50 [21]: > 100 µM (inactive)
- GI50 [22]: > 100 µM (inactive)
- GI50 [23]: 93.3 µM (inactive)
- GI50 [24]: > 100 µM (inactive)
- GI50 [25]: > 100 µM (inactive)
- GI50 [26]: 33.9 µM (inactive)
- GI50 [27]: > 100 µM (inactive)
- GI50 [28]: > 100 µM (inactive)
- GI50 [29]: > 100 µM (inactive)
- GI50 [30]: > 100 µM (inactive)
- GI50 [31]: > 100 µM (inactive)
- GI50 [32]: 36.8 µM (inactive)
- GI50 [33]: 72.3 µM (inactive)
- GI50 [34]: 57.7 µM (inactive)
- GI50 [35]: > 100 µM
- GI50 [36]: 56.5 µM (inactive)
- GI50 [37]: > 100 µM (inactive)
- GI50 [38]: 17 µM (inactive)
- GI50 [39]: > 100 µM (inactive)
- GI50 [40]: > 100 µM (inactive)
- GI50 [41]: > 100 µM (inactive)
- GI50 [42]: > 100 µM (inactive)
- GI50 [43]: 68.7 µM (inactive)
- GI50 [44]: > 100 µM (inactive)
- GI50 [45]: 45.6 µM (inactive)
- GI50 [46]: 59.2 µM (inactive)
- GI50 [47]: > 100 µM (inactive)
- GI50 [48]: 70.3 µM (inactive)
- GI50 [49]: > 100 µM (inactive)
- GI50 [50]: > 100 µM (inactive)
- GI50 [51]: > 100 µM (inactive)
- GI50 [52]: > 100 µM (inactive)
- GI50 [53]: > 100 µM (inactive)
- GI50 [54]: 73.1 µM (inactive)
